Where “and” joins values, the source holds several entries; their conditions need not be identical. Equal values may be shown once. Toxic doses and inconclusive results are not listed.
Test system: L1210 leukemia ip in BDF1 mice, survival T/C
Experiment: NCI In Vivo Anticancer Drug Screen. Data for tumor model L1210 Leukemia (intraperitoneal) in B6D2F1 (BDF1) mice
Conditions: vehicle: saline, higher = longer survival
In short: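 Read-out is survival time, reported as the treated-group measurement over the vehicle-control measurement.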

N[C@H](C(=O)O)[C@@H]1CC(Cl)=NO1
T/C (endpoint: mean survival time, dose: 0.1 mg/kg/injection, schedule: Q03HX024 (ip)): 120 % of control | T/C (endpoint: mean survival time, dose: 0.39 mg/kg/injection, schedule: Q01DX009 (sc)): 119 % of control and 121 % of control | T/C (endpoint: mean survival time, dose: 0.39 mg/kg/injection, schedule: Q03HX024 (ip)): 194 % of control | T/C (endpoint: mean survival time, dose: 0.78 mg/kg/injection, schedule: Q01DX009 (oral)): 123 % of control | T/C (endpoint: mean survival time, dose: 1.0 mg/kg/injection, schedule: Q01DX009 (ip)): 123 % of control and 124 % of control | T/C (endpoint: mean survival time, dose: 1.56 mg/kg/injection, schedule: Q01DX009 (oral)): 151 % of control | T/C (endpoint: mean survival time, dose: 3.12 mg/kg/injection, schedule: Q01DX001 (ip)): 107 % of control | T/C (endpoint: mean survival time, dose: 3.12 mg/kg/injection, schedule: Q04DX003 (ip)): 107 % of control | T/C (endpoint: mean survival time, dose: 4.0 mg/kg/injection, schedule: Q01DX009 (ip)): 152 % of control | T/C (endpoint: mean survival time, dose: 6.2 mg/kg/injection, schedule: Q04DX003 (ip)): 115 % of control and 116 % of control | T/C (endpoint: mean survival time, dose: 6.25 mg/kg/injection, schedule: Q01DX001 (ip)): 112 % of control | T/C (endpoint: mean survival time, dose: 6.25 mg/kg/injection, schedule: Q01DX009 (oral)): 107 % of control and 110 % of control | T/C (endpoint: mean survival time, dose: 6.25 mg/kg/injection, schedule: Q01DX009 (sc)): 105 % of control | T/C (endpoint: mean survival time, dose: 12.5 mg/kg/injection, schedule: Q01DX001 (ip)): 119 % of control | T/C (endpoint: mean survival time, dose: 12.5 mg/kg/injection, schedule: Q01DX009 (sc)): 101 % of control | T/C (endpoint: mean survival time, dose: 12.5 mg/kg/injection, schedule: Q04DX003 (ip)): 109 % of control and 110 % of control | T/C (endpoint: mean survival time, dose: 16.0 mg/kg/injection, schedule: Q01DX009 (ip)): 102 % of control | T/C (endpoint: mean survival time, dose: 25.0 mg/kg/injection, schedule: Q01DX009 (sc)): 94 % of control and 95 % of control | T/C (endpoint: mean survival time, dose: 25.0 mg/kg/injection, schedule: Q03HX008 (ip)): 153 % of control | T/C (endpoint: mean survival time, dose: 25.0 mg/kg/injection, schedule: Q04DX003 (ip)): 116 % of control and 120 % of control | T/C (endpoint: mean survival time, dose: 32.0 mg/kg/injection, schedule: Q01DX009 (ip)): 104 % of control and 115 % of control | T/C (endpoint: mean survival time, dose: 50.0 mg/kg/injection, schedule: Q04DX003 (ip)): 120 % of control and 123 % of control | T/C (endpoint: median survival time, dose: 0.25 mg/kg/injection, schedule: Q03HX024 (ip)): 117 % of control | T/C (endpoint: median survival time, dose: 0.39 mg/kg/injection, schedule: Q03HX024 (ip)): 175 % of control | T/C (endpoint: median survival time, dose: 0.5 mg/kg/injection, schedule: Q03HX016 (ip)): 124 % of control | T/C (endpoint: median survival time, dose: 0.78 mg/kg/injection, schedule: Q01DX009 (ip)): 153 % of control | T/C (endpoint: median survival time, dose: 0.78 mg/kg/injection, schedule: Q03HX016 (ip)): 150 % of control | T/C (endpoint: median survival time, dose: 0.78 mg/kg/injection, schedule: Q03HX024 (ip)): 191 % of control | T/C (endpoint: median survival time, dose: 1.0 mg/kg/injection, schedule: Q01DX009 (sc)): 122 % of control | T/C (endpoint: median survival time, dose: 1.0 mg/kg/injection, schedule: Q03HX008 (ip)): 120 % of control | T/C (endpoint: median survival time, dose: 1.0 mg/kg/injection, schedule: Q03HX024 (ip)): 159 % of control | T/C (endpoint: median survival time, dose: 1.56 mg/kg/injection, schedule: Q03HX016 (ip)): 159 % of control | T/C (endpoint: median survival time, dose: 2.0 mg/kg/injection, schedule: Q03HX016 (ip)): 150 % of control | T/C (endpoint: median survival time, dose: 2.0 mg/kg/injection, schedule: Q03HX024 (ip)): 181 % of control | T/C (endpoint: median survival time, dose: 2.0 mg/kg/injection, schedule: Q04DX003 (ip)): 106 % of control | T/C (endpoint: median survival time, dose: 3.12 mg/kg/injection, schedule: Q01DX009 (ip)): 94 % of control | T/C (endpoint: median survival time, dose: 3.12 mg/kg/injection, schedule: Q03HX008 (ip)): 154 % of control | T/C (endpoint: median survival time, dose: 3.12 mg/kg/injection, schedule: Q03HX016 (ip)): 166 % of control | T/C (endpoint: median survival time, dose: 4.0 mg/kg/injection, schedule: Q01DX009 (ip)): 158 % of control | T/C (endpoint: median survival time, dose: 4.0 mg/kg/injection, schedule: Q03HX016 (ip)): 153 % of control | T/C (endpoint: median survival time, dose: 4.0 mg/kg/injection, schedule: Q04DX003 (ip)): 110 % of control | T/C (endpoint: median survival time, dose: 4.0 mg/kg/injection, schedule: Q08DX002 (ip)): 104 % of control | T/C (endpoint: median survival time, dose: 6.25 mg/kg/injection, schedule: Q03HX016 (ip)): 182 % of control | T/C (endpoint: median survival time, dose: 8.0 mg/kg/injection, schedule: Q01DX001 (ip)): 100 % of control | T/C (endpoint: median survival time, dose: 8.0 mg/kg/injection, schedule: Q01DX001 (sc)): 114 % of control | T/C (endpoint: median survival time, dose: 8.0 mg/kg/injection, schedule: Q01DX009 (ip)): 165 % of control | T/C (endpoint: median survival time, dose: 8.0 mg/kg/injection, schedule: Q01DX009 (sc)): 162 % of control | T/C (endpoint: median survival time, dose: 8.0 mg/kg/injection, schedule: Q03HX016 (ip)): 162 % of control | T/C (endpoint: median survival time, dose: 8.0 mg/kg/injection, schedule: Q08DX002 (ip)): 114 % of control | T/C (endpoint: median survival time, dose: 12.5 mg/kg/injection, schedule: Q01DX001 (ip)): 115 % of control | T/C (endpoint: median survival time, dose: 12.5 mg/kg/injection, schedule: Q03HX016 (ip)): 171 % of control | T/C (endpoint: median survival time, dose: 12.5 mg/kg/injection, schedule: Q03HX024 (ip)): 93 % of control | T/C (endpoint: median survival time, dose: 12.5 mg/kg/injection, schedule: Q04DX003 (ip)): 153 % of control | T/C (endpoint: median survival time, dose: 12.5 mg/kg/injection, schedule: Q08DX002 (ip)): 151 % of control | T/C (endpoint: median survival time, dose: 16.0 mg/kg/injection, schedule: Q01DX001 (ip)): 99 % of control | T/C (endpoint: median survival time, dose: 16.0 mg/kg/injection, schedule: Q01DX001 (sc)): 105 % of control | T/C (endpoint: median survival time, dose: 16.0 mg/kg/injection, schedule: Q01DX009 (oral)): 94 % of control | T/C (endpoint: median survival time, dose: 16.0 mg/kg/injection, schedule: Q01DX009 (sc)): 109 % of control | T/C (endpoint: median survival time, dose: 16.0 mg/kg/injection, schedule: Q03HX016 (ip)): 155 % of control | T/C (endpoint: median survival time, dose: 16.0 mg/kg/injection, schedule: Q04DX003 (ip)): 120 % of control | T/C (endpoint: median survival time, dose: 16.0 mg/kg/injection, schedule: Q08DX002 (ip)): 106 % of control | T/C (endpoint: median survival time, dose: 25.0 mg/kg/injection, schedule: Q01DX001 (ip)): 108 % of control | T/C (endpoint: median survival time, dose: 25.0 mg/kg/injection, schedule: Q04DX003 (ip)): 154 % of control | T/C (endpoint: median survival time, dose: 32.0 mg/kg/injection, schedule: Q01DX001 (ip)): 113 % of control | T/C (endpoint: median survival time, dose: 32.0 mg/kg/injection, schedule: Q01DX001 (sc)): 107 % of control | T/C (endpoint: median survival time, dose: 32.0 mg/kg/injection, schedule: Q01DX009 (ip)): 103 % of control | T/C (endpoint: median survival time, dose: 32.0 mg/kg/injection, schedule: Q08DX002 (ip)): 114 % of control | T/C (endpoint: median survival time, dose: 50.0 mg/kg/injection, schedule: Q01DX001 (ip)): 122 % of control | T/C (endpoint: median survival time, dose: 50.0 mg/kg/injection, schedule: Q04DX003 (ip)): 188 % of control | T/C (endpoint: median survival time, dose: 50.0 mg/kg/injection, schedule: Q08DX002 (ip)): 151 % of control | T/C (endpoint: median survival time, dose: 64.0 mg/kg/injection, schedule: Q01DX001 (ip)): 113 % of control | T/C (endpoint: median survival time, dose: 64.0 mg/kg/injection, schedule: Q01DX001 (oral)): 112 % of control and 114 % of control | T/C (endpoint: median survival time, dose: 64.0 mg/kg/injection, schedule: Q01DX001 (sc)): 116 % of control | T/C (endpoint: median survival time, dose: 64.0 mg/kg/injection, schedule: Q08DX002 (ip)): 109 % of control | T/C (endpoint: median survival time, dose: 128.0 mg/kg/injection, schedule: Q01DX001 (ip)): 116 % of control | T/C (endpoint: median survival time, dose: 128.0 mg/kg/injection, schedule: Q01DX001 (oral)): 119 % of control | T/C (endpoint: median survival time, dose: 128.0 mg/kg/injection, schedule: Q01DX001 (sc)): 115 % of control | T/C (endpoint: median survival time, dose: 128.0 mg/kg/injection, schedule: Q08DX002 (ip)): 119 % of control | T/C (endpoint: median survival time, dose: 256.0 mg/kg/injection, schedule: Q01DX001 (ip)): 110 % of control | T/C (endpoint: median survival time, dose: 256.0 mg/kg/injection, schedule: Q01DX001 (oral)): 116 % of control | T/C (endpoint: median survival time, dose: 256.0 mg/kg/injection, schedule: Q01DX001 (sc)): 120 % of control | T/C (endpoint: median survival time, dose: 400.0 mg/kg/injection, schedule: Q01DX001 (ip)): 93 % of control | T/C (endpoint: median survival time, dose: 400.0 mg/kg/injection, schedule: Q08DX002 (ip)): 116 % of control
